US20200123127A1, “REMOVAL OF SENESCENCE-ASSOCIATED MACROPHAGES” (EVERON BIOSCIENCES, INC., priority 2016, published 2020)

Key:
[1] = test system: p16(Ink4a) expression in SAMs; test: p16(Ink4a) promoter-dependent luciferase activity in alginate bead-elicited macrophages (SAMs) ex vivo; format: cell-based, mouse; settings: for IL-4-dependent increase in luciferase activity / p16(Ink4a) expression: IL-4 10 ng/mL, 72 hour; for Modulation of p16(Ink4a): SAMs: SAMs from NDF alginate beads, dose-response testing
Experimental: FIG. 7. Immunomodulatory regulation of p16(Ink4a) and SAβG in macrophages. Peritoneal lavage cells elicited by alginate-encapsulated SCs from p16^Ink4a/Luc mice were treated ex vivo with immunomodulatory agents for 72 hours. A) p16 promoter-dependent luciferase activity (black bars) and […] activity (via 4-MUG hydrolysis) (gray bars) were measured following treatment with M1- and M2-polarizing stimuli: LPS at 1 ng/mL, IFN-γ at 10 ng/mL, LPS/IFN-γ co-treatment, Poly(I:C) at 10 μg/mL, IFN-α at 100 U/mL, IL-4 at 20 ng/mL, IL-13 at 10 ng/ml, and IL-4/IL-13 co-treatment. Results are shown as the mean±standard deviation for at least 3 independent experiments, with statistical significance between treated compared to non-treated samples depicted. B) Dose-dependent response of JAK1/2 inhibitor Ruxolitinib on luciferase activity in elicited macrophages in the presence (gray bars) or absence (black bars) of IL-4 (10 ng/mL) stimulation. Enzyme activities are expressed as the percent activity relative to non-treated (NT) controls per cell. Statistical significance between IL-4 stimulated and non-stimulated cells at each concentration of ruxolitinib is shown.
(§1) FIG. 8. Immunomodulatory regulation of p16(Ink4a) and SAβG in macrophages. Peritoneal lavage cells elicited by alginate-encapsulated SCs from p16^Ink4a/Luc mice were treated ex vivo with immunomodulatory agents for up to 72 hours. (A) mRNA expression of p16(Ink4a) and β-galactosidase (Glb1) in macrophages (relative to B2m expression) with or without LPS stimulation for 72 hours analyzed via qRT-PCR, normalized to non-treated controls. (B) Microphotograph of SAβG-stained adherence-selected macrophages with or without stimulation with LPS (1 ng/mL) for 72 hours (10× objective). (C&D) Kinetics of p16(Ink4a) promoter-dependent luciferase activity per cell with or without LPS stimulation (C) or IL-4 stimulation (D), normalized to activity from non-treated cells at time zero. Results are shown as the mean±standard deviation for at least 3 experiments. Statistical significance with respect to non-treated control at time zero is indicated. (E) Luciferase activity and (3-galactosidase activity (via 4-MUG hydrolysis) from proteose peptone-elicited lavage cells following stimulation with IL-4 (20 ng/mL) for 72 hours, normalized to non-treated controls. (F) Viability following 72 hour dose-response to JAK1/2 inhibitor Ruxolitinib in the presence or absence of IL-4 (10 ng/mL) stimulation, measured by CyQuant Direct DNA-based viability assay. Viability normalized to respective controls lacking Ruxolitinib. (G&H) Dose-response of STAT6 inhibitor AS1517499 against luciferase activity (G) and viability via CyQuant Direct assay (H) following 72 hour treatment in the presence and absence of IL-4 (10 ng/mL). Results normalized to respective controls (with or without IL-4) lacking STAT6 inhibitor. Statistical significance is calculated with respect to the difference between IL-4 stimulated and non-stimulated cells at each concentration of STAT6 inhibitor. (I) Relative luciferase activity per cell following repolarization with M1- and M2-inducing agents. Macrophages were left non-treated (NT) or treated with either LPS (1 ng/ml) or IL-4 (20 ng/ml) for 72 hours (days 1-3), as indicated. For each treatment set, samples were collected at 72 hours (no further treatment; days 4-6=x). Alternatively, cells were washed and placed in fresh medium (−), medium containing LPS (1 ng/mL) and IFN-γ (10 ng/mL), or medium containing IL-4 (20 ng/mL) and IL-13 (10 ng/mL) and incubated for an additional 72 hours prior to sample collection (as indicated for days 4-6). Luciferase activity is expressed as the percent activity per cell relative to non-treated (NT) controls after the first 72 hours.
Luciferase activity of cell lysates was accessed using Bright-Glo™ Luciferase Assay System (Promega; Madison, Wis.) according to manufacturer's instructions with minor modifications. […]

[2] = test system: p16(Ink4a) in mLF and mVAT fibroblasts; test: Modulation of p16(Ink4a) in mouse lung and visceral adipose tissue-derived fibroblasts; format: cell-based; settings: for Modulation of p16(Ink4a): mLF and mVAT Senescent: 20Gy irradiation for senescence induction; for Modulation of p16(Ink4a): mLF and mVAT Proliferating: without irradiation
From the text: We next sought to determine whether immunomodulatory agents, and other small molecules, were capable of selectively modulating p16(Ink4a) expression in SAMs by comparing their effects on p16 expression in SAMs to that of mouse lung fibroblasts (mLF) and mouse visceral adipose tissue-derived fibroblasts (mVAT). […] Immunomodulatory agents cause little to no change in p16 expression in fibroblasts. For example, mouse fibroblasts are reported to respond to LPS and IL-4 (expressing TLR4 and IL-4R, respectively), yet these agents are unable to modulate p16 in fibroblasts.

SAMs = test: SAM viability (CyQuant Direct / resazurin); format: cell-based, mouse; settings: 72 hour; presence or absence of IL-4 10 ng/mL
Experimental: as §1
FIG. 10. Elevated p16(Ink4a) and β-galactosidase is regulated by immunomodulatory agents in macrophages, but not in mesenchymal SCs. Primary cultures of adipose-derived mesenchymal stromal cells (AdMSC) isolated from p16^Ink4a/Luc mice were irradiated (20 Gy) and cultured for 10 days for senescence induction. Mock irradiated cells were used as a proliferating cell control. Response of senescent and proliferating AdMSCs to immunomodulatory agents were compared to that of peritoneal lavage cells elicited by our alginate bead model. A-D) Dose-response curves of LPS (top panels: […]) and Poly(I:C) (bottom panels: C&D) on p16(Ink4a) promoter-dependent luciferase activity (left panels: A&C) and beta-galactosidase activity measured via 4-MUG hydrolysis (right panels: B&D) after 72 hr treatment. […]
FIG. 13. […] SAM viability was determined using the resazurin cell viability assay (Res). […]

[3] = test system: chronologically aging mice; test: Survival and frailty index of chronologically aging mice; format: in vivo, mouse
Experimental: FIG. 11. OT-82 effects on survival and frailty index of old mice. (A) Male and female mice were treated with OT-82 or with vehicle alone as a negative control. Survival was measured over the course of six treatments.
FIG. 12. Effects of asenins TA-3899 and TA-4812 on survival and frailty index of old mice. Results are provided on a background of FI of mice of the similar age, aged normally without any treatments (black color). Difference between FI of males receiving 3899 and intact mice is statistically significant (p=0.02).
Frailty Index (FI) was determined for individual mice as described previously (Antoch et al. Aging. 2017; 9: 1-12) using a 26 week-old group as a “young mouse” reference. For each mouse, various parameters were measured. These parameters include non-invasive measurements, including age, body weight, grip strength, diastolic blood pressure, and tail blood flow. Additional blood chemistry measurements were also determined, including white blood cell count, neutrophil count, neutrophil percentage, lymphocyte percentage, monocyte percentage, eosinophil percentage, red blood cell count, hemoglobin, hematocrit, mean corpuscular volume, mean corpuscular hemoglobin, mean corpuscular hemoglobin concentration, platelet count, and mean platelet volume. For each parameter mean value and standard deviation were calculated. Animals differing by more than one standard deviation (STDEV) from mean value in any single parameter were excluded from the reference group. Values for each measured parameter were compared with corresponding values for the reference group and assigned a score. The number of deficits an individual mouse expressed was calculated as a ratio of total number of parameters measured and this value is referred to as the frailty index.
Asenins TA-3899 and TA-4812 were evaluated for their effects on survival and frailty index in a model of chronologic aging mice. Treatment lasted for 20 weeks (weeks 77-97 of age). […] Frailty index of males was measured at week 109.

SMILES	IL-4-dependent increase in luciferase activity / p16(Ink4a) expression [1]	Modulation of p16(Ink4a): mLF and mVAT Senescent [2]	Modulation of p16(Ink4a): mLF and mVAT Proliferating [2]	viability of macrophages (CyQuant Direct) (SAMs)	Modulation of p16(Ink4a): SAMs [1]	survival rates vs control groups ([3]; OT-82: after 6 courses, 111 weeks of age, asenins: treated weeks 77-97, at 112 weeks of age)	FI of males compared to intact animals ([3]; treatment weeks 77-97 of age, measured at week 109)
N#CCNC(=O)c1ccc(-c2ccnc(Nc3ccc(N4CCOCC4)cc3)n2)cc1 [CYT387, momelotinib, reference compound]	abrogates	no change	no change	–	–	–	–
NC(=O)c1cnc(NCCc2ccc(O)c(Cl)c2)nc1NCc1ccccc1 [AS1517499, reference compound]	abrogated	no change	no change	without affecting viability	–	–	–
CN(C)C(=N)N=C(N)N [Metformin]	–	–	–	–	decrease	–	–
CCOC(=O)c1sc(SCc2ccccc2)c2c1CN(c1ccc(OC)cc1)C/C2=N\O [Example A1.11, Ethyl 1-(benzylthio)-7-(hydroxyimino)-5-(4-methoxyphenyl)-4,5,6,7-tetrahydro-thieno[3,4-c]pyridine-3-carboxylate]	–	no change	no change	–	decrease	no statistical significance	statistically significant decrease
